This is an account of results in patent US9309187B2, “EP2 receptor agonists” (TAKEDA GMBH, priority 2012, dated 2016).

For assay [1], the system named is plasma TNFα after i.v. LPS. The assay can be described thus: In vivo assay: LPS-induced TNFα release in rats. More on the design: species or system Sprague Dawley rats. The conditions noted are these: Rattus norvegicus; p.o. 1 h prior to i.v. LPS 20 μg/kg; plasma TNFα 1 h after LPS. As to the method:
In Vivo Assay: LPS-Induced TNFα Release in Rats
Intravenously administration of lipopolysaccharide (LPS) causes a systemic inflammation characterised by release of pro-inflammatory cytokines, e.g. tumor necrosis factor alpha (TNFα). Selective EP2 agonists are administered per oral 1 h prior intravenously LPS challenge in rats. The anti-inflammatory activity of the selective EP2 agonists is assessed based on TNFα levels in blood plasma 1 h after LPS exposure.
Male Sprague Dawley rats weighing 250-300 g were used. Rats were delivered 1 week prior to the experiments and had free access to water and food.
The test compound was mixed with 1.33% polyethylenglycol 400 (PEG400, Merck, Darmstadt, Germany) and subsequently suspended in 2% methocel solution (hypromellose, Sigma, Steinheim, Germany) containing Antifoam C Emulsion (Sigma, Steinheim, Germany, 0.1 mL/15 mL) using a mixing device (ULTRA-TURRAX T8 basic, VDI12, VWR International GmbH). The aimed doses were prepared by dilution series from the stock suspension, which was prepared for the administration of the highest dose in each experiment.
The administered volume of the compound suspension is 10 mL/kg. On day of the experiment the rat body weights were documented to calculate the volume to be administered. LPS challenged control animals received drug-free vehicle solution as placebo. Test compounds and vehicle were administered by oral gavage 1 h prior to LPS challenge.
LPS (from Escherichia coli 055:B5, Sigma, Steinheim, Germany) was solubilised in 0.9% sterile NaCl solution (B. Braun Melsungen AG, Melsungen, Germany) containing 0.1% hydroxylamine (Sigma, Steinheim, Germany). LPS is intravenously (i.v.) injected at a dose of 20 μg/kg (1 mL/kg b.w.) 1 h after compound or vehicle administration.
One hour after LPS-challenge, the animals were sacrificed by inhalative isofluran anaesthesia and subsequently cervical dislocation. Heparinised blood was obtained by heart puncture. Blood was centrifuged (21,000×g, 4° C., 10 min), and plasma samples were kept frozen at −20° C. until determination of TNFα levels by ELISA. TNFα was measured with a commercially available ELISA-Kit (Quantikine®, Rat TNFα/TNFSF1A, R&D Systems, Minneapolis, USA).
The compound effect on TNFα release was calculated individually in percent (%) for each compound treated animal in relation to the mean TNFα level of the vehicle treated LPS-challenged control group: % effect=(Y−K)/K*100 • with defining: • Y=plasma TNFα concentration of the compound treated animal • K=mean plasma TNFα concentration of the vehicle treated group
Statistical analysis was performed on the primary TNFα concentrations by One-Way ANOVA and Dunnett's Multiple Comparison test vs. vehicle treated control group.

A further assay deals with T1, human EP2 receptor (Homo sapiens, UniProt P43116).
T1 construct: purchased Millipore
T1 sequence (P43116 whole entry): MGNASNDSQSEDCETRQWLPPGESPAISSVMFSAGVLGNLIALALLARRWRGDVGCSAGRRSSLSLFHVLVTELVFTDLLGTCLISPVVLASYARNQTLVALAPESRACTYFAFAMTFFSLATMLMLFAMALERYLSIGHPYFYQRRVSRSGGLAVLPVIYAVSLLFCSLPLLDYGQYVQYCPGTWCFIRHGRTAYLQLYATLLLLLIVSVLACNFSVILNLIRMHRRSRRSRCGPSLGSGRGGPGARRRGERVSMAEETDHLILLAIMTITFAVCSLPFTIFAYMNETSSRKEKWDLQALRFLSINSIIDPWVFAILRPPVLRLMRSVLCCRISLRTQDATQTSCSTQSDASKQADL
The assay is described as follows: EP2 binding assay (PGE2 displacement). The conditions noted are these: recombinant human EP2 membranes, 1 nanoM [3H]-PGE2; reported as range bins; read-out: EP2 binding (PGE2 displacement) pIC50 (-log IC50) (converted). As to the method: Method for Measuring Inhibition of PGE2 Binding to the Human Prostanoid Receptor EP2:
Human EP2 receptor equilibrium competition binding assays were performed according to Abramovitz et al. (M. Abramovitz et al. 2000, Biochimica et Biophysica Acta 1483: 285-293) in a final incubation volume of 100 microL in 50 milliM Bis-Tris, pH6.0 in 96-well plates. Radiolabelled Prostaglandin E2 (PGE2) (1 nanoM [^3H]-PGE2 purchased from Perkin Elmer) was added to the assay as competitive ligand. Test compounds stored as Dimethylsulfoxide (DMSO) stock solutions were added to the assay in serial dilutions in assay buffer while keeping the final DMSO concentration equal in each sample. The reaction was initiated by addition of membrane proteins harbouring human EP2 receptor (ChemiSCREEN™ membrane preparation recombinant human EP2 prostanoid receptor that was purchased by Millipore). Total binding was determined in the absence of test compound or PGE2 and non-specific binding was determined in the presence of 1 microM PGE2. Incubations were conducted for 60 minutes at room temperature until equilibrium was reached and terminated by filtration through GF/B filter (Perkin Elmer) prewetted with 0.3% PEI solution. Unbound radiolabelled PGE2 was removed by 8 wash cycles with the same buffer under ice-cold conditions and the filters containing the residual radioactivity were dried for 60 minutes at 60° C. In order to measure the filter bound radioactivity, 40 microL microscint (scintillation liquid) was added to each filter and the chemiluminescence was determined by TopCount-NTX™. The specific binding was calculated by subtracting non-specific binding from each sample. Percent inhibition by test compounds was calculated based on specific binding without test compound. Each sample was measured in triplicates per experiment and for the calculation of the pIC50 at least 2 independent experiments were performed. Determination of half maximal inhibiting concentration (IC50) was performed with GraphPad Prism Software.
The numbers of the compounds correspond to the examples numbers.
EP2 Binding Assay (PGE2 Displacement): pIC50 Values

The term ED50 denotes the dose that gives a 50% effect, or the effect in half of the subjects. Read a high ED50 as weaker potency. Usually IC50 stands for the concentration that inhibits the measured activity by half.

For the molecule `O=C(O)/C=C/c1cccc(NC(=O)c2cc(-c3ccccc3)cc3ccccc23)c1` [Example 1, (2E)-3-(3-{[(3-phenylnaphthalen-1-yl)carbonyl]amino}phenyl)prop-2-enoic acid], the ED50 in assay [1] lay within 0.1 to 3 mg/kg. On human EP2 receptor, the concentration for half-maximal inhibition (IC50) is 1.26 to 10 nM.
Taken in the same sequence, the figures for `O=C(O)/C=C/c1ccc(F)c(NC(=O)c2cc(-c3ccccc3)cc3ccccc23)c1` [Example 2, (2E)-3-(4-fluoro-3-{[(3-phenylnaphthalen-1-yl)carbonyl]amino}phenyl)prop-2-enoic acid] were 0.1 to 3 mg/kg and 1.26 to 10 nM.
`O=C(O)/C=C/c1ccc(Cl)c(NC(=O)c2cc(-c3ccccc3)cc3ccccc23)c1` [Example 3, (2E)-3-(4-chloro-3-{[(3-phenylnaphthalen-1-yl)carbonyl]amino}phenyl)prop-2-enoic acid] returned an ED50 in assay [1] of 0.1 to 3 mg/kg. In addition, on human EP2 receptor, the IC50 was 1.26 to 10 nM.
Taken in the same sequence, the figures for `O=C(O)/C=C/c1ccc(F)c(NC(=O)c2cc(-c3ccccc3F)cc3ccccc23)c1` [Example 9, (2E)-3-{3-[({3-[2-fluorophenyl]naphthalen-1-yl}carbonyl)amino]-4fluorophenyl}prop-2-enoic acid] were 0.1 to 3 mg/kg and 1.26 to 10 nM.
Taken in the same sequence, the figures for `O=C(O)/C=C/c1ccc(F)c(NC(=O)c2cc(-c3cccc(F)c3)cc3ccccc23)c1` [Example 10, (2E)-3-{3-[({3-[3-fluorophenyl]naphthalen-1-yl}carbonyl)amino]-4fluorophenyl}prop-2-enoic acid] were 0.1 to 3 mg/kg and 1.26 to 10 nM.
